Test results taken from paper PMC7821884, “BRAF inhibition protects against hearing loss in mice” (Science Advances, 2020).

Experiments:
SHP-77 small cell = test: Tumor Cell Titer-Glo viability assay, SHP-77; assay type: cell-based, human
Description: In clinical settings, cisplatin is used to treat several tumor types, including neuroblastoma and lung carcinoma. […] Medium-alone–, cisplatin-alone–, and dabrafenib-alone–treated cells were used as controls, and viability was reported as percent survival compared to medium alone (Fig. 4E).
Three human neuroblastoma cell lines IMR-32, SH-SY5Y, and, SK-N-AS, as well as three human lung carcinoma cell lines SHP-77 small cell, H1155 non–small cell, and A549 non–small cell, were used to determine the compounds’ effect on cisplatin’s tumor-killing efficacy ([77]–[83]). Cell lines were purchased from the American Type Culture Collection (ATCC), and cell culture was conducted according to ATCC specifications. Neuroblastoma cell lines IMR-32 and SH-SY5Y are maintained in Dulbecco’s modified Eagle’s medium (DMEM) 1× with glucose (4.5 g/liter), L-glutamine, and sodium pyruvate (10-013-CV, Corning) with 10% fetal bovine serum (FBS) (35011132, Corning) and ampicillin (50 μg/ml; A5354-10ML, Sigma-Aldrich) added. The SK-N-AS cell line is maintained in DMEM 1× with D-glucose (4.5 g/liter), L-glutamine, and 25 mM Hepes (12430-054, Gibco) with 10% FBS, 0.1 mM nonessential amino acids, and ampicillin (50 μg/ml) added. A549 cells are maintained in F-12K medium with L-glutamine (30-2004, ATCC) with 10% FBS and ampicillin (50 μg/ml) added. […]

[1] = cited from earlier work
[2] = system: P3-P4 FVB mouse cochlear explants; details: FVB, mouse, 24 h
Protocol: Mouse cochlear explants are widely recognized as an alternative to in vivo cochlear models and pragmatic for focused drug screening ([37]). […] Medium-alone, drug-alone, and cisplatin-alone treatments were used as controls.
P3-P4 FVB mouse cochleae were dissected and maintained in culture on filter inserts in six-well plates with 1 ml of growth medium DMEM (12430-054,Gibco Life Technologies), with 1% FBS (16000-044, Gibco Life Technologies), B-27 supplement (200 μl/500 ml; 17504-44, Gibco Life Technologies), N-2 supplement (100 μl/500 ml; 17502-048, Gibco Life Technologies), and ampicillin (50 μg/ml; A5354-10ML, Sigma-Aldrich) both inside and outside the filter (Millicell, PICM03050, Millipore). […] Cochleae were imaged by confocal microscopy, two 160-μm regions from middle turns were photographed, and the number of intact HCs was counted. Two to five independent cochleae were tested for each experimental condition.

P42 FVB mice = test: Noise-induced hearing loss in adult mice (ABR, DPOAE, Ctbp2 puncta, pERK); assay type: in vivo, mouse
Protocol: Noise injury cannot always be predicted, and pretreatment is often not an option.
Compounds were dissolved in a mixture of 10% DMSO, 5% Tween 80 (P1754, Sigma-Aldrich), 40% PEG-E-300 (91462-1KG, Sigma-Aldrich), and 45% 0.9% saline.
ABR in mice was measured for left ears as described previously with minor modifications ([13], [34]). In brief, ABR waveforms were recorded in a sound booth (Industrial Acoustic Company) by using subdermal needles positioned in the skull, below the pinna, and at the base of the tail, and the responses were fed into a low-impedance Medusa digital biological amplifier system (RA4L; TDT; 20-dB gain). At each frequency, the stimulus intensity was reduced from 90 to 0 dB in 10-dB steps to determine the threshold decibel SPL when the electrical response was just above the noise floor. ABR waveforms were averaged in response to 500 tone bursts. The recorded signals were filtered by a band-pass filter from 300 Hz to 3 kHz. Pretreatment ABR recordings of adult FVB mice (aged 6 weeks) were acquired 1 week before all treatments, and posttreatment ABR measurements were recorded 21 days after cisplatin treatment or 14 days after noise exposure. ABR threshold was determined by the presence of any of three or more of the five waveform peaks. […] All thresholds and shifts were determined independently by two experimenters for each mouse. Individual ABR wave 1 amplitudes were measured as the difference between the positive peak and the following negative trough.
Mice were placed in individual cages in a custom-made acrylic chamber. The sound stimulus was produced by System RZ6 (TDT) equipment and amplified using a 75-A power amplifier (Crown). Sound was delivered to the acrylic chamber via a speaker horn (JBL). The SPL was calibrated with a 1/4-inch free-field microphone (PCB). Before experimental noise exposure, four quadrants of the cage inside the chamber were sampled with the 1/4-inch microphone to ensure that the SPL varied by <0.5 dB across the measured positions. Adult mice were then exposed to 2 hours of octave band noise (8 to 16 kHz) at 100 dB.
Organs of Corti were costained with anti-Ctbp2 and anti–myosin VI antibodies. Confocal imaging was performed using a Zeiss 700 scanning confocal microscope with a 63× objective. Visualization and projections were performed using ZEN 2009 or ZEN 2012 software (Zeiss). Ctbp2 puncta were visualized and counted on the reconstructed three-dimensional images by using the ZEN 2009 or ZEN 2012 three-dimensional construct function as previously reported ([54]). […] Images were acquired around 16-kHz cochlear regions, and each image included 12 to 18 IHCs that were quantified as total number of Ctbp2 puncta divided by total number of IHCs per image.

[3] = set-up: method as in PMID 29039591, PMID 31818130; details: cited from earlier work

Compound: CC(C)(C)c1nc(-c2cccc(NS(=O)(=O)c3c(F)cccc3F)c2F)c(-c2ccnc(N)n2)s1 [dabrafenib]
- effect on tumor cell death when combined with cisplatin (SHP-77 small cell; SHP-77, 35 μM + 15 μM cisplatin, 48 hours): increased tumor cell death
- cell survival, drug treatment alone (SHP-77 small cell; SHP-77, 35 μM, no cisplatin): significant inhibition
- half-life in circulation [1]: roughly 8 hours
- LD50 (median lethal dose) [2]: > 60 µM
- loss of Ctbp2 puncta per IHC at 16-kHz region (P42 FVB mice; 100 mg/kg pretreatment): partially rescued
- effect on noise-reduced 16-kHz ABR wave 1 amplitude (P42 FVB mice; 100 mg/kg pretreatment, 80- and 90-dB SPL): significantly mitigated
- noise-induced ERK phosphorylation in SCs (P42 FVB mice; pretreatment, 3 hours after noise): reduced ERK phosphorylation
- blood-brain barrier penetration [3]: penetrates the blood-brain barrier
